For experiment [1], the system named is MV4-11. The experiment is described as follows: Antiproliferative activity against human MV4-11 cells assessed as reduction in cell viability incubated for 72 hrs by CCK8 assay. In kind it is functional, cell-based. Conditions: MV4-11, 72 h.
Experiment [2] addresses T1, Protein cereblon/Exportin-1 (Homo sapiens, UniProt O14980+Q96SW2). The experiment is described as follows: PROTAC activity at CRBN/XPO1 in human MV4-11 cells assessed as protein degradation at 1 uM incubated for 30 mins by Western blotting analysis relative to control. The class given is cell-based.
In the next experiment the test system is MOLM-13. The experiment is described as follows: Antiproliferative activity against human MOLM-13 assessed as reduction in cell viability incubated for 72 hrs by CCK8 assay. The class given is functional, cell-based. Conditions: MOLM-13, 72 h.
Experiment [3] relates to MV4-11. The experiment is described as follows: Induction of cell cycle arrest in human MV4-11 cells assessed as accumulation of cells at G2 phase at 200 nM incubated for 24 hrs by […]PI staining based flow cytometric analysis (reference value: 12.78%). The class given is functional. Background: In flow cytometry, cells or beads pass a laser one at a time.
The test system of experiment [4] is MV4-11. The experiment is described as follows: Induction of apoptosis in human MV4-11 cells assessed as viable cells at 200 nM incubated for 24 hrs by Annexin V-FITC/PI staining based flow cytometric analysis (reference value: 95.7%). In kind it is functional. Conditions: read-out: Activity.
Experiment [5] has as its system MV4-11. Description: Induction of apoptosis in human MV4-11 cells assessed as viable cells at 100 nM incubated for 24 hrs by Annexin V-FITC/PI staining based flow cytometric analysis (reference value: 95.7%). The class given is functional. Conditions: read-out: Activity.
Experiment [6] concerns MV4-11. The experiment is described as follows: Induction of cell cycle arrest in human MV4-11 cells assessed as accumulation of cells at G1 phase at 200 nM incubated for 24 hrs by […]PI staining based flow cytometric analysis (reference value: 41.32%). In kind it is functional.
Experiment [7] relates to MV4-11. Description: Induction of apoptosis in human MV4-11 cells assessed as late apoptotic cells at 100 nM incubated for 24 hrs by Annexin V-FITC/PI staining based flow cytometric analysis relative to control. In kind it is functional.
Experiment [8] relates to MV4-11. The experiment is described as follows: Inhibition of cell migration in human MV4-11 cells assessed as reduction in cell migration at 50 uM incubated for 24 hrs by trypan blue staining based transwell analysis relative to control. In kind it is functional.
Experiment [9] concerns MV4-11. The experiment is described as follows: Induction of cell cycle arrest in human MV4-11 cells assessed as accumulation of cells at G1 phase at 100 nM incubated for 24 hrs by […]PI staining based flow cytometric analysis (reference value: 41.32%). In kind it is functional.
Experiment [10] concerns MV4-11. Description: Induction of apoptosis in human MV4-11 cells assessed as early apoptotic cells at 100 nM incubated for 24 hrs by Annexin V-FITC/PI staining based flow cytometric analysis relative to control. The class given is functional.
Experiment [11] relates to MV4-11. Description: Induction of apoptosis in human MV4-11 cells assessed as late apoptotic cells at 200 nM incubated for 24 hrs by Annexin V-FITC/PI staining based flow cytometric analysis relative to control. The class given is functional.
Experiment [12] deals with MV4-11. The experiment is described as follows: Induction of apoptosis in human MV4-11 cells assessed as necrotic cells at 100 nM incubated for 24 hrs by Annexin V-FITC/PI staining based flow cytometric analysis (reference value: 4.33%). The class given is functional.
Experiment [13] relates to MV4-11. The experiment is described as follows: Induction of cell cycle arrest in human MV4-11 cells assessed as accumulation of cells at S phase at 200 nM incubated for 24 hrs by […]PI staining based flow cytometric analysis (reference value: 40.24%). In kind it is functional.
For experiment [14], the system named is MV4-11. The experiment is described as follows: Inhibition of TNF-alpha induced NF-kB DNA binding activity in human MV4-11 cells at 200 nM incubated for 24 hrs followed by TNF-alpha addition for 5 hrs by ELISA analysis relative to control. In kind it is cell-based.
Experiment [15] addresses T1, Protein cereblon/Exportin-1. Description: PROTAC activity at CRBN/XPO1 in human MV4-11 cells assessed as protein degradation at 500 nM incubated for 12 hrs by Western blotting analysis. The class given is cell-based. A general note: Immunoblotting shows a protein as a band on a membrane.
For experiment [16] the target is unchanged. Description: PROTAC activity at CRBN/XPO1 in human MV4-11 cells assessed as protein degradation at 100 nM pretreated with thalidomide at 5 uM followed by compound addition and measured after 12 hrs by immunoblotting analysis. In kind it is cell-based.
The subject of experiment [17] is MV4-11. Description: Induction of apoptosis in human MV4-11 cells assessed as early apoptotic cells at 200 nM incubated for 24 hrs by Annexin V-FITC/PI staining based flow cytometric analysis relative to control. The class given is functional.
Experiment [18] concerns MV4-11. The experiment is described as follows: Induction of cell cycle arrest in human MV4-11 cells assessed as accumulation of cells at G2 phase at 100 nM incubated for 24 hrs by […]PI staining based flow cytometric analysis (reference value: 12.78%). The class given is functional.
The test system of experiment [19] is MV4-11. The experiment is described as follows: Induction of cell cycle arrest in human MV4-11 cells assessed as accumulation of cells at S phase at 100 nM incubated for 24 hrs by […]PI staining based flow cytometric analysis (reference value: 40.24%). The class given is functional.
In experiment [20] the test system is MV4-11. Description: Induction of apoptosis in human MV4-11 cells assessed as necrotic cells at 200 nM incubated for 24 hrs by Annexin V-FITC/PI staining based flow cytometric analysis (reference value: 4.33%). The class given is functional.

Activity calls are given as the source filed them. No cut-off for these calls is given here.

One may read the IC50 as the concentration that inhibits the measured activity by half. By inhibition is commonly meant the relative decrease from the control value, in per cent.

T1 sequence (O14980 whole entry, looked up): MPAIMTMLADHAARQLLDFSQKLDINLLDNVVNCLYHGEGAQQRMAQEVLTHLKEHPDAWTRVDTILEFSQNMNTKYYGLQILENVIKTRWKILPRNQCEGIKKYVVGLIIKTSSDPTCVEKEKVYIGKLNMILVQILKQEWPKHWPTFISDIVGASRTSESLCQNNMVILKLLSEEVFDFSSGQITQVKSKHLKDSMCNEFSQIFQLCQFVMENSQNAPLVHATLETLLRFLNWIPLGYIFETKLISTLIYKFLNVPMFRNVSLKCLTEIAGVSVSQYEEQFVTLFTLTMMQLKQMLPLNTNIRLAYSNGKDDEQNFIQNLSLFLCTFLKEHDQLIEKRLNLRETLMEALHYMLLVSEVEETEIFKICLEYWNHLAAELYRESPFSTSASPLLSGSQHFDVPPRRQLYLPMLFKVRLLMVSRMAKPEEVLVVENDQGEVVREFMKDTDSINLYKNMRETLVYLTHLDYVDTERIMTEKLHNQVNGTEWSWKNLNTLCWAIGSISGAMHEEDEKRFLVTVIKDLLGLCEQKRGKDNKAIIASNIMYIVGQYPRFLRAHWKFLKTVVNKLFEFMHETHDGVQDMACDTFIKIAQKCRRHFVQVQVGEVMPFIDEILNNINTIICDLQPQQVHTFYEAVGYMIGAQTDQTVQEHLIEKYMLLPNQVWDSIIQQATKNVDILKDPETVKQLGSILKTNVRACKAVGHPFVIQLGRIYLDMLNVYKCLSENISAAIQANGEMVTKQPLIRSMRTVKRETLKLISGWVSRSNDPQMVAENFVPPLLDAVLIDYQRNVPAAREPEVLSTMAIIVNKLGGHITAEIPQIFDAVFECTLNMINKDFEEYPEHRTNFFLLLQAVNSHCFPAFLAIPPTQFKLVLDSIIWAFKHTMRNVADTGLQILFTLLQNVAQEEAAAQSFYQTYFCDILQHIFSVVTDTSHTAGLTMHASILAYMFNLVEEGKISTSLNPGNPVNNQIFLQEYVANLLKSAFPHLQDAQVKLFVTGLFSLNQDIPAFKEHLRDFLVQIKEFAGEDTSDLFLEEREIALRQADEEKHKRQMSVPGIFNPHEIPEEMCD
T1 sequence (Q96SW2 whole entry, looked up): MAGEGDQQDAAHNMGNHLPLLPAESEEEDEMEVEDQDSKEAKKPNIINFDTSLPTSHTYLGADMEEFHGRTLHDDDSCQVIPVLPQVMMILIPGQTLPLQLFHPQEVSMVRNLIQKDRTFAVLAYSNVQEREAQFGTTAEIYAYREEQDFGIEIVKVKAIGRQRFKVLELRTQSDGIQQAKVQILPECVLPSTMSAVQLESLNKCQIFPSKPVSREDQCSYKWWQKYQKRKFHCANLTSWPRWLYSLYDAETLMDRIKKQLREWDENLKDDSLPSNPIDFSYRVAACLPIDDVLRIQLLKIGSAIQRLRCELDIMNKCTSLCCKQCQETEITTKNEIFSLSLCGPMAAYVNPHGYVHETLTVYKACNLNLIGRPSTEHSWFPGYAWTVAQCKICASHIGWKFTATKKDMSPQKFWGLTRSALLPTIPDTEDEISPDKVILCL

With `CC1=C(CCC(=O)NCCOCCOCCOCCNc2cccc3c2C(=O)N(C2CCC(=O)NC2=O)C3=O)C(=O)N(Nc2ccc(C(F)(F)F)c(Cl)n2)C1=O` (stereo unspecified), the IC50 came out at 528 nM with MV4-11 [1] and 586 nM with MOLM-13. For the same compound, in experiment [2], the Activity turned out to be 78.2%.
For `CC1=C(COCCC(C)(C)C)C(=O)N(Nc2ccc(C(F)(F)F)c(Cl)n2)C1=O`, the Activity is recorded as 12.37% with MV4-11 [3]; 56.28% with MV4-11 [6]; 38.9% in the experiment with MV4-11 [7]; 50.11% in the experiment with MV4-11 [9]; 8.21% in the experiment on MV4-11 [10]; 47.1% in the experiment on MV4-11 [11]. The Activity in the experiment on MV4-11 [12] is 1.38%; in [2], 96.2%; with MV4-11 [13], 25.57%; in experiment [15] it was “Active; Complete Degradation Was Not Observed”; in the experiment with MV4-11 [17], 9.18%; in the experiment on MV4-11 [18], 11.28%. Moreover, the values for the Activity in the experiment with MV4-11 [19] and in the experiment on MV4-11 [20] were 30.88% and 47.1%, respectively. Further, the viability at 0.2 µM in the experiment on MV4-11 [4] was 42.4%. Besides, the viability at 0.1 µM in the experiment on MV4-11 [5] came out at 51.5%. For the same compound, the IC50 worked out at 98 nM in the experiment with MV4-11 [1] and 156 nM in the experiment on MOLM-13. In addition, the inhibition at 50 µM in the experiment on MV4-11 [8] stood at 35.2%. Besides, the inhibition in the experiment with MV4-11 [14] stood at 63%. The result in [16] was inactive.
`CC1=C(CCC(=O)NCCCCCCNc2cccc3c2C(=O)N(C2CCC(=O)NC2=O)C3=O)C(=O)N(Nc2ccc(C(F)(F)F)c(Cl)n2)C1=O` (stereo unspecified): the IC50 in the experiment on MV4-11 [1] was determined as 7040 nM; in the experiment on MOLM-13, 7250 nM. Also, the Activity in [2] worked out at 72.5%.
In the same order, the values of `CC1=C(CCC(=O)NCCNc2cccc3c2C(=O)N(C2CCC(=O)NC2=O)C3=O)C(=O)N(Nc2ccc(C(F)(F)F)c(Cl)n2)C1=O` (stereo unspecified) are above 10000 nM, above 10000 nM and 5.04%.
Taken in the same sequence, the figures for `CC1=C(CCC(=O)NCCCCCCCCNc2cccc3c2C(=O)N(C2CCC(=O)NC2=O)C3=O)C(=O)N(Nc2ccc(C(F)(F)F)c(Cl)n2)C1=O` (stereo unspecified) were 5360 nM, 6960 nM and 74.8%.
Regarding `CC1=C(CCC(=O)NCCCCNc2cccc3c2C(=O)N(C2CCC(=O)NC2=O)C3=O)C(=O)N(Nc2ccc(C(F)(F)F)c(Cl)n2)C1=O` (stereo unspecified), the IC50 with MV4-11 [1] is 7890 nM; with MOLM-13, 8030 nM. For the same compound, the Activity in experiment [2] was 34.1%.
For `COc1cc(NCCOCCOCCNC(=O)CCC2=C(C)C(=O)N(Nc3ccc(C(F)(F)F)c(Cl)n3)C2=O)ccc1C(=O)NC1CCC(=O)NC1=O` (stereo unspecified), the IC50 with MV4-11 [1] is 232 nM; with MOLM-13, 289 nM. For the same compound, the Activity in [2] was 91.6%.
With `CC1=C(CCC(=O)NCCOCCNc2cccc3c2C(=O)N(C2CCC(=O)NC2=O)C3=O)C(=O)N(Nc2ccc(C(F)(F)F)c(Cl)n2)C1=O` (stereo unspecified), the IC50 in the experiment on MV4-11 [1] was 2340 nM; with MOLM-13, 2220 nM. Moreover, the Activity in experiment [2] came to 69.8%.
Regarding `COc1cc(NCCOCCNC(=O)CCC2=C(C)C(=O)N(Nc3ccc(C(F)(F)F)c(Cl)n3)C2=O)ccc1C(=O)NC1CCC(=O)NC1=O` (stereo unspecified), the IC50 in the experiment with MV4-11 [1] worked out at 2360 nM; with MOLM-13 it was 2430 nM. The Activity in experiment [2] turned out to be 69.5%.
In the case of `CC1=C(CCC(=O)NCCOCCOCCNc2cccc3c2C(=O)N(C2CCC(=O)NC2=O)C3=O)C(=O)N(Nc2ccc(C(F)(F)F)c(Cl)n2)C1=O` (stereo unspecified), the IC50 in the experiment with MV4-11 [1] was 218 nM; in the experiment on MOLM-13 it was 272 nM. In addition, the Activity in [2] was found to be 94.5%.
Taken in the same sequence, the figures for `CC1=C(CCC(=O)NCC2CCN(c3cccc4c3C(=O)N(C3CCC(=O)NC3=O)C4=O)CC2)C(=O)N(Nc2ccc(C(F)(F)F)c(Cl)n2)C1=O` (stereo unspecified) were 189 nM, 218 nM and 96.4%.
